# In patent US20060069132A1, “Azolecarboxamide herbicides” (priority 2004, published 2006):
# Read-outs that look alike come from different tables or passages of the source.
# Legend:
# lambsquarters = test: Test B pre-/postemergence herbicide test; format: in vivo, Chenopodium album; conditions: Chenopodium album, 336 h; for pest or weed control at 125 g/ha: 125 g ai/ha; for pest or weed control at 500 g/ha: 500 g ai/ha
# Procedure, shortened: (§1)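 Pre: seeds sown, then sprayed. Post: 1–4-leaf plants (2–18 cm) sprayed at the same time. Paddy: flooded, treated at 2-leaf stage. Formulation: non-phytotoxic solvent with surfactant. Greenhouse 13–15 days; visual 0–100 score relative to controls.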
# blackgrass = test: Test B postemergence herbicide test; format: in vivo, Alopecurus myosuroides; conditions: Alopecurus myosuroides, post-emergence, 336 h, postemergence, read-out: Blackgrass plant response rating
# Procedure, shortened: (§2)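 Each value is a visual 0–100 response rating taken against controls 13 to 15 days after treatment in the greenhouse. Plants received formulated chemical postemergence at the 1- to 4-leaf stage or, in flooded paddy, at the 2-leaf stage.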
# barnyardgrass = test: Test B pre-/postemergence herbicide test; format: in vivo, Echinochloa crus-galli; conditions: Echinochloa crus-galli; for pest or weed control at 125 g/ha: 125 g ai/ha; for pest or weed control at 500 g/ha: 500 g ai/ha
# Procedure, shortened: (§3)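 Evaluation is visual, comparing treated with control plants on a scale where 0 means no effect and 100 means full control. Treatments were preemergence, or postemergence on seedlings 2–18 cm tall, and held 13–15 days in the greenhouse.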
# large crabgrass = test: Test B pre-/postemergence herbicide test; format: in vivo, Digitaria sanguinalis; conditions: Digitaria sanguinalis; for pest or weed control at 125 g/ha: 125 g ai/ha; for pest or weed control at 500 g/ha: 500 g ai/ha
# Procedure, shortened: as §1
# velvetleaf = test: Test B pre-/postemergence herbicide test; format: in vivo, Abutilon theophrasti; conditions: Abutilon theophrasti, 336 h; for pest or weed control at 125 g/ha: 125 g ai/ha; for pest or weed control at 500 g/ha: 500 g ai/ha
# Procedure, shortened: as §1
# morningglory = test: Test B pre-/postemergence herbicide test; format: in vivo, Ipomoea coccinea; conditions: Ipomoea, 336 h; for pest or weed control at 125 g/ha: 125 g ai/ha; for pest or weed control at 500 g/ha: 500 g ai/ha
# Procedure, shortened: as §3
# ducksalad = test: Test B flooded paddy test; format: in vivo, Heteranthera limosa; conditions: Heteranthera limosa, 336 h, 1000 g ai/ha, scale 0 to 100 (0 no effect, 100 complete control), read-out: Ducksalad plant response rating
# Procedure, shortened: as §2
# wild oat = test: Test B postemergence herbicide test; format: in vivo, Avena fatua; conditions: Avena fatua, post-emergence, 336 h, postemergence, read-out: Oat, Wild plant response rating
# Procedure, shortened: (§4)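 Scale 0–100: zero equals no visible effect, 100 complete control, judged by eye relative to controls. Timing: 13 to 15 days in greenhouse post-treatment. Growth stage at spraying: two leaves (paddy) or one to four leaves, 2–18 cm (postemergence).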
# wheat = test: Test B postemergence herbicide test; format: in vivo, Triticum aestivum; conditions: Triticum aestivum, post-emergence, 336 h, postemergence, read-out: Wheat plant response rating
# Procedure, shortened: as §4
# giant foxtail = test: Test B pre-/postemergence herbicide test; format: in vivo, Setaria faberi; conditions: Setaria faberi, 336 h; for pest or weed control at 125 g/ha: 125 g ai/ha; for pest or weed control at 500 g/ha: 500 g ai/ha
# Procedure, shortened: as §1
# [1] = tested on: small flower umbrella sedge; test: Test B flooded paddy test; format: in vivo, Cyperus difformis; conditions: Cyperus difformis, 336 h, 1000 g ai/ha, scale 0 to 100 (0 no effect, 100 complete control), read-out: Sedge, Umbrella plant response rating
# Procedure, shortened: as §2
# corn = test: Test B pre-/postemergence herbicide test; format: in vivo, Zea mays; conditions: Zea mays; for plant injury at 125 g/ha: 125 g ai/ha
# Procedure, shortened: as §1
# rice = test: Test B flooded paddy test; format: in vivo, Oryza sativa; conditions: Oryza sativa, 336 h, 1000 g ai/ha, scale 0 to 100 (0 no effect, 100 complete control), read-out: Rice plant response rating
# Procedure, shortened: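 Plants grow to 1- to 4-leaf stage (2–18 cm) for postemergence spraying, or to 2-leaf stage for the paddy test. Formulated compound is applied. Greenhouse holding lasts 13–15 days. Response is scored visually relative to controls, 0 no effect to 100 complete control; a dash means no result.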
# pigweed = test: Test B pre-/postemergence herbicide test; format: in vivo, Amaranthus retroflexus; conditions: Amaranthus retroflexus, 336 h; for pest or weed control at 125 g/ha: 125 g ai/ha; for pest or weed control at 500 g/ha: 500 g ai/ha
# Procedure, shortened: as §1
# Surinam grass = test: Test B pre-/postemergence herbicide test; format: in vivo, Urochloa decumbens; conditions: Urochloa decumbens; for pest or weed control at 125 g/ha: 125 g ai/ha; for pest or weed control at 500 g/ha: 500 g ai/ha
# Procedure, shortened: as §1
# [2] = 125 g ai/ha, visual rating, scale 0 (no effect) to 100 (complete control)
# [3] = 500 g ai/ha, scale 0 to 100, 0 is no effect, 100 is complete control
structure (smiles),measurement,setting,value
"CCn1nc(C(C)(C)C)c(F)c1C(=O)Nc1cc(C(=O)N(C)C)ccc1F [Compound 276, N-[5-[(dimethylamino)carbonyl]-2-fluorophenyl]-3-(1,1-dimethylethyl)-1-ethyl-4-fluoro-1H-pyrazole-5-carboxamide]",pest or weed control at 125 g/ha,"lambsquarters; post-emergence, postemergence, visual rating, scale 0 (no effect) to 100 (complete control), read-out: Lambsquarters plant response rating",20%
same,pest or weed control at 500 g/ha,"lambsquarters; post-emergence, postemergence, scale 0 to 100, 0 is no effect, 100 is complete control, read-out: Lambsquarters plant response rating",60%
same,pest or weed control at 125 g/ha,"lambsquarters; pre-emergence, 0 = no effect, 100 = complete control, read-out: Lambsquarters plant response rating (0 to 100 scale)",40%
same,pest or weed control at 500 g/ha,"lambsquarters; pre-emergence, visual rating, 0 = no effect, 100 = complete control, read-out: Plant response rating, Lambsquarters",100%
same,pest or weed control at 125 g/ha,blackgrass; [2],30%
same,pest or weed control at 500 g/ha,blackgrass; [3],40%
same,pest or weed control at 125 g/ha,"barnyardgrass; post-emergence, postemergence, visual rating, scale 0 (no effect) to 100 (complete control), read-out: Barnyardgrass plant response rating",0%
same,pest or weed control at 500 g/ha,"barnyardgrass; post-emergence, postemergence, scale 0 to 100, 0 is no effect, 100 is complete control, read-out: Barnyardgrass plant response rating",10%
same,pest or weed control at 125 g/ha,"barnyardgrass; pre-emergence, 0 = no effect, 100 = complete control, read-out: Barnyardgrass plant response rating (0 to 100 scale)",60%
same,pest or weed control at 500 g/ha,"barnyardgrass; pre-emergence, visual rating, 0 = no effect, 100 = complete control, read-out: Plant response rating, Barnyardgrass",80%
same,pest or weed control at 125 g/ha,"large crabgrass; post-emergence, postemergence, visual rating, scale 0 (no effect) to 100 (complete control), read-out: Crabgrass, Large plant response rating",10%
same,pest or weed control at 500 g/ha,"large crabgrass; post-emergence, postemergence, scale 0 to 100, 0 is no effect, 100 is complete control, read-out: Crabgrass, Large plant response rating",20%
same,pest or weed control at 125 g/ha,"large crabgrass; pre-emergence, 0 = no effect, 100 = complete control, read-out: Crabgrass, Large plant response rating (0 to 100 scale)",10%
same,pest or weed control at 500 g/ha,"large crabgrass; pre-emergence, visual rating, 0 = no effect, 100 = complete control, read-out: Plant response rating, Crabgrass, Large",70%
same,pest or weed control at 125 g/ha,"velvetleaf; post-emergence, postemergence, visual rating, scale 0 (no effect) to 100 (complete control), read-out: Velvetleaf plant response rating",10%
same,pest or weed control at 500 g/ha,"velvetleaf; post-emergence, postemergence, scale 0 to 100, 0 is no effect, 100 is complete control, read-out: Velvetleaf plant response rating",40%
same,pest or weed control at 125 g/ha,"velvetleaf; pre-emergence, 0 = no effect, 100 = complete control, read-out: Velvetleaf plant response rating (0 to 100 scale)",0%
same,pest or weed control at 500 g/ha,"velvetleaf; pre-emergence, visual rating, 0 = no effect, 100 = complete control, read-out: Plant response rating, Velvetleaf",50%
same,pest or weed control at 125 g/ha,"morningglory; post-emergence, postemergence, visual rating, scale 0 (no effect) to 100 (complete control), read-out: Morningglory plant response rating",10%
same,pest or weed control at 500 g/ha,"morningglory; post-emergence, postemergence, scale 0 to 100, 0 is no effect, 100 is complete control, read-out: Morningglory plant response rating",30%
same,pest or weed control at 125 g/ha,"morningglory; pre-emergence, 0 = no effect, 100 = complete control, read-out: Morningglory plant response rating (0 to 100 scale)",0%
same,pest or weed control at 500 g/ha,"morningglory; pre-emergence, visual rating, 0 = no effect, 100 = complete control, read-out: Plant response rating, Morningglory",10%
same,pest or weed control at 1000 g/ha,ducksalad,80%
same,pest or weed control at 125 g/ha,wild oat; [2],30%
same,pest or weed control at 500 g/ha,wild oat; [3],40%
same,plant injury at 125 g/ha,wheat; [2],20%
same,plant injury at 500 g/ha,wheat; [3],30%
same,pest or weed control at 125 g/ha,"giant foxtail; post-emergence, postemergence, visual rating, scale 0 (no effect) to 100 (complete control), read-out: Foxtail, Giant plant response rating",10%
same,pest or weed control at 500 g/ha,"giant foxtail; post-emergence, postemergence, scale 0 to 100, 0 is no effect, 100 is complete control, read-out: Foxtail, Giant plant response rating",40%
same,pest or weed control at 125 g/ha,"giant foxtail; pre-emergence, 0 = no effect, 100 = complete control, read-out: Foxtail, Giant plant response rating (0 to 100 scale)",30%
same,pest or weed control at 500 g/ha,"giant foxtail; pre-emergence, visual rating, 0 = no effect, 100 = complete control, read-out: Plant response rating, Foxtail, Giant",90%
same,pest or weed control at 1000 g/ha,[1],80%
same,plant injury at 125 g/ha,"corn; post-emergence, postemergence, visual rating, scale 0 (no effect) to 100 (complete control), read-out: Corn plant response rating",0%
same,plant injury at 500 g/ha,"corn; post-emergence, postemergence, 500 g ai/ha, scale 0 to 100, 0 is no effect, 100 is complete control, read-out: Corn plant response rating",20%
same,plant injury at 125 g/ha,"corn; pre-emergence, 0 = no effect, 100 = complete control, read-out: Corn plant response rating (0 to 100 scale)",20%
same,"Corn plant response rating (crop injury, 0 = no effect, 100 = complete kill) at 500 g/ha","corn; pre-emergence, 500 g ai/ha, visual rating, 0 = no effect, 100 = complete control",60%
same,plant injury at 1000 g/ha,rice,70%
same,pest or weed control at 125 g/ha,"pigweed; post-emergence, postemergence, visual rating, scale 0 (no effect) to 100 (complete control), read-out: Pigweed plant response rating",40%
same,pest or weed control at 500 g/ha,"pigweed; post-emergence, postemergence, scale 0 to 100, 0 is no effect, 100 is complete control, read-out: Pigweed plant response rating",70%
same,pest or weed control at 125 g/ha,"pigweed; pre-emergence, 0 = no effect, 100 = complete control, read-out: Pigweed plant response rating (0 to 100 scale)",30%
same,pest or weed control at 500 g/ha,"pigweed; pre-emergence, visual rating, 0 = no effect, 100 = complete control, read-out: Plant response rating, Pigweed",100%
same,pest or weed control at 125 g/ha,"Surinam grass; post-emergence, postemergence, visual rating, scale 0 (no effect) to 100 (complete control), read-out: Surinam Grass plant response rating",10%
same,pest or weed control at 500 g/ha,"Surinam grass; post-emergence, postemergence, scale 0 to 100, 0 is no effect, 100 is complete control, read-out: Surinam Grass plant response rating",20%
same,pest or weed control at 125 g/ha,"Surinam grass; pre-emergence, 0 = no effect, 100 = complete control, read-out: Surinam Grass plant response rating (0 to 100 scale)",10%
same,pest or weed control at 500 g/ha,"Surinam grass; pre-emergence, visual rating, 0 = no effect, 100 = complete control, read-out: Plant response rating, Surinam Grass",60%
